Experimental data reported in ChEMBL document CHEMBL2057151, “Synthesis and structure-activity relationships of pyrido[3,2-b]pyrazin-3(4H)-ones and pteridin-7(8H)-ones as corticotropin-releasing factor-1 receptor antagonists” (Bioorg Med Chem Lett, 2012).
pIC50: −log10 of the molar value.

Tests used:
[1] = Fraction unbound in rat plasma; type: ADME, cell-free
[2] = molecular target: T1, Corticotropin-releasing factor receptor 1 (Rattus norvegicus, UniProt P35353); experiment: Antagonist activity at rat CFR1R; type: functional
T1 sequence (P35353 whole entry): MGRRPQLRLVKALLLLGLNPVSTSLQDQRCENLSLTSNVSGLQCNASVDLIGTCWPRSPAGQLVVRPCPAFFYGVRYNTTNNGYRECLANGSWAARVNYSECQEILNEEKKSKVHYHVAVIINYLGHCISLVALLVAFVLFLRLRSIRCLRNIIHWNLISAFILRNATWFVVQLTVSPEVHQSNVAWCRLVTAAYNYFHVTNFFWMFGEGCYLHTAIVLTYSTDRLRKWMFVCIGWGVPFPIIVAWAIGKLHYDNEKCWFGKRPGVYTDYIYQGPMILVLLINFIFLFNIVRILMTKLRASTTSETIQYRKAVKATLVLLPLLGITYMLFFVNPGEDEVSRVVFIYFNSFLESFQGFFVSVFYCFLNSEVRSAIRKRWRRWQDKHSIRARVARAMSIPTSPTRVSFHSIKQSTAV

Rattus norvegicus = experiment: AUC in rat at 1.5 mg/kg, po; type: ADME, organism-based, Plasma; set-up: dose 1.5 mg/kg, route oral; details: in vivo
[3] = Volume of distribution at steady state in rat at 0.5 mg/kg, iv and 1.5 mg/kg, po; type: ADME, organism-based; details: in vivo, read-out: Vdss
[4] = Half life in rat at 0.5 mg/kg, iv; type: ADME, organism-based; set-up: dose 0.5 mg/kg, route intravenous; details: in vivo
[5] = Clearance in rat at 0.5 mg/kg, iv and 1.5 mg/kg, po; type: ADME, organism-based; details: in vivo

`COc1ccc(-c2ncnc3c2nc(C)c(=O)n3C(C2CC2)C2CC2)c(C)c1` showed a fraction unbound [1] of 0.014 and a pIC50 [2] of 7.43.

Work on `CCC(COC)n1c(=O)c(C)nc2c(-c3cc(F)c(OC)cc3Cl)ncnc21` (stereo not given) yielded a fraction unbound [1] of 0.014 and a pIC50 [2] of 7.80.

`COCC(C1CC1)n1c(=O)c(C)nc2c(-c3cc(F)c(OC)cc3Cl)ncnc21` (stereo not given) gave an AUC (Rattus norvegicus) of 0.3 µM·h, a fraction unbound [1] of 0.028 and a pIC50 [2] of 8.12. For the same molecule, the Vd [3] was 2.05 L/kg, the half-life [4] was 2 h and the clearance [5] was 33.7 mL/min/kg.

With `CC[C@@H](C1CC1)n1c(=O)c(C)nc2c(-c3ccc(Cl)cc3Cl)nccc21` the pIC50 [2] was 7.26.

Molecule `CC[C@H](COC)n1c(=O)c(C)nc2c(-c3ccc(Cl)cc3Cl)nccc21` has a pIC50 [2] of 6.82.

Work on `COc1ccc(-c2ccnc3c2nc(C)c(=O)n3C(C2CC2)C2CC2)c(C)c1` yielded a fraction unbound [1] of 0.03 and a pIC50 [2] of 8.52.

`CCC(COC)n1c(=O)c(C)nc2c(-c3cc(F)c(OC)cc3Cl)ccnc21` (stereo not given) showed a fraction unbound [1] of 0.03 and a pIC50 [2] of 8.68.

With `COCC(C1CC1)n1c(=O)c(C)nc2c(-c3cc(F)c(OC)cc3Cl)ccnc21` (stereo not given) the fraction unbound [1] was < 0.002 and the pIC50 [2] was 8.82.

For `CCC(COC)n1c(=O)c(C)nc2c(-c3cc(Cl)c(OC)cc3C)ccnc21` (stereo not given), the AUC (Rattus norvegicus) was 8.5 µM·h, the Vd [3] was 1.8 L/kg and the half-life [4] was 5.8 h. The clearance [5] was 9.5 mL/min/kg.

For `Cc1nc2c(-c3ccc(Cl)cc3Cl)ccnc2n(CC(C)C)c1=O`, the pIC50 [2] was 5.46.

In the case of `Cc1nc2c(-c3ccc(Cl)cc3Cl)ccnc2n(C(C)C(C)C)c1=O` (stereo not given), the pIC50 [2] was 6.42.

For `CCCC(C)n1c(=O)c(C)nc2c(-c3ccc(Cl)cc3Cl)ccnc21` (stereo not given), the pIC50 [2] was 7.21.

For `CC[C@H](C1CC1)n1c(=O)c(C)nc2c(-c3ccc(Cl)cc3Cl)ccnc21`, the pIC50 [2] was 8.09.

In the case of `CC[C@@H](C1CC1)n1c(=O)c(C)nc2c(-c3ccc(Cl)cc3Cl)ccnc21`, the fraction unbound [1] was 0.002 and the pIC50 [2] was 8.13.

For `CCCC(C1CC1)n1c(=O)c(C)nc2c(-c3ccc(Cl)cc3Cl)ccnc21` (stereo not given), the pIC50 [2] was 8.37.

Molecule `COCC(C)n1c(=O)c(C)nc2c(-c3ccc(Cl)cc3Cl)ccnc21` (stereo not given) has a pIC50 [2] of 7.20.

Molecule `CC[C@H](COC)n1c(=O)c(C)nc2c(-c3ccc(Cl)cc3Cl)ccnc21` has a fraction unbound [1] of 0.004 and a pIC50 [2] of 8.40.

With `CC[C@@H](COC)n1c(=O)c(C)nc2c(-c3ccc(Cl)cc3Cl)ccnc21` the pIC50 [2] was 7.13.

For `CC[C@@H](C1CC1)n1c(=O)c(C)nc2c(-c3ccc(C(F)(F)F)cc3Cl)ccnc21`, the pIC50 [2] was 7.68.

With `CC[C@@H](C1CC1)n1c(=O)c(C)nc2c(-c3ccc(OC(F)F)cc3Cl)ccnc21` the pIC50 [2] was 8.14.

`CC[C@@H](C1CC1)n1c(=O)c(C)nc2c(-c3ccc(OC)cc3Cl)ccnc21` showed a pIC50 [2] of 8.40.

Work on `CC[C@H](C1CC1)n1c(=O)c(C)nc2c(-c3ccc(OC)cc3Cl)ccnc21` yielded a pIC50 [2] of 8.35.

`CC[C@H](C1CC1)n1c(=O)c(C)nc2c(-c3cc(Cl)c(OC)cc3C)ccnc21` showed a pIC50 [2] of 8.35.

Molecule `CC[C@H](C1CC1)n1c(=O)c(C)nc2c(-c3cc(F)c(OC)cc3Cl)ccnc21` has a pIC50 [2] of 8.77.

Work on `CC[C@H](C1CC1)n1c(=O)c(C)nc2c(-c3cc(F)c(OC)cc3C)ccnc21` yielded a pIC50 [2] of 8.03.

Molecule `CCC(C1CC1)n1c(=O)c(C)nc2c(-c3cc(C#N)c(C)cc3Cl)ccnc21` (stereo not given) has a pIC50 [2] of 8.32.

`CC[C@H](C1CC1)n1c(=O)c(C)nc2c(-c3ccc(OC)cc3C)ccnc21` gave a pIC50 [2] of 7.96.

Work on `CC[C@H](C1CC1)n1c(=O)c(C)nc2c(-c3ccc(OC)nc3C)ccnc21` yielded a pIC50 [2] of 7.12.

With `CC[C@H](C1CC1)n1c(=O)c(C)nc2c(-c3cc(C)c(OC)cc3C)ccnc21` the pIC50 [2] was 6.89.

In the case of `CC[C@H](C1CC1)n1c(=O)c(C)nc2c(-c3cc(C)c(OC)nc3C)ccnc21`, the pIC50 [2] was 7.82.

With `CC[C@@H](C1CC1)n1c(=O)c(C)nc2c(-c3ccc(Cl)cc3Cl)ncnc21` the fraction unbound [1] was 0.004 and the pIC50 [2] was 7.62.

Molecule `CC[C@H](COC)n1c(=O)c(C)nc2c(-c3ccc(Cl)cc3Cl)ncnc21` has a fraction unbound [1] of 0.022 and a pIC50 [2] of 7.01.

`CCC(C1CC1)n1c(=O)c(C)nc2c(-c3cc(Cl)c(OC(F)F)cc3C)ncnc21` (stereo not given) showed a fraction unbound [1] of 0.004 and a pIC50 [2] of 7.42.

`CCC(C1CC1)n1c(=O)c(C)nc2c(-c3ccc(C)cc3C)ccnc21` (racemic) showed a pIC50 [2] of 8.06.

In the case of `CCC(C1CC1)n1c(=O)c(C)nc2c(-c3cc(C)c(C)cc3C)ccnc21` (racemic), the pIC50 [2] was 8.28.

Molecule `CCC(C1CC1)n1c(=O)c(C)nc2c(-c3cc(C)c(C)c(C)c3C)ccnc21` (racemic) has a pIC50 [2] of 6.47.

With `CCC(C1CC1)n1c(=O)c(C)nc2c(-c3cc(C)c(OC)cc3Cl)ccnc21` (racemic) the fraction unbound [1] was < 0.002 and the pIC50 [2] was 9.17.

`CCOc1cc(Cl)c(-c2ccnc3c2nc(C)c(=O)n3C(CC)C2CC2)cc1C` (racemic) gave a pIC50 [2] of 8.70.

In the case of `CCC(C1CC1)n1c(=O)c(C)nc2c(-c3cc(C)c(OC(C)C)cc3Cl)ccnc21` (racemic), the pIC50 [2] was 7.82.

Work on `CCC(C1CC1)n1c(=O)c(C)nc2c(-c3cc(Cl)c(OC(F)F)cc3C)ccnc21` (racemic) yielded a fraction unbound [1] of 0.003 and a pIC50 [2] of 8.01.

For `CCC(C1CC1)n1c(=O)c(C)nc2c(-c3cc(F)c(OC)cc3F)ccnc21` (racemic), the pIC50 [2] was 7.28.

With `CCC(C1CC1)n1c(=O)c(C)nc2c(-c3cc(F)c(N(C)C)cc3Cl)ccnc21` (racemic) the fraction unbound [1] was < 0.002 and the pIC50 [2] was 9.09.

For `CCC(C1CC1)n1c(=O)c(C)nc2c(-c3cc(C)c(Cl)cc3OC)ccnc21` (racemic), the pIC50 [2] was 8.96.

For `CCC(C1CC1)n1c(=O)c(C)nc2c(-c3cc(Cl)c(OC)cc3OC)ccnc21` (racemic), the pIC50 [2] was 8.47.
